Results on four compounds are retold here after patent publication US20140315857A1, “N- (4 -QUINOLINYLMETHYL) SULFONAMIDE DERIVATIVES AND THEIR USE AS ANTHELMINTICS” (E I DU PONT DE NEMOURS AND COMPANY, priority 2011, published 2014).

SMILES strings stand for the structures.

The mortality is the percentage killed. Low values mean more survivors, high ones fewer survivors. By melting point is commonly meant the temperature, or range, at which the solid turns liquid.

In data set [1] the test system is Haemonchus contortus. Description: Test A: control of barber pole worm, eggs in culture media, mortality at L3 stage. The data set is classed as cell-based. The note with it: 120 h. The procedure: For evaluating control of the barber pole worm (Haemonchus contortus), a test compound was solubilized in culture media (Earle's Balanced Salt Solution) containing Haemonchus contortus eggs to obtain a final test compound concentration of 2.0 ppm. The test unit was evaluated for mortality 120 hours later after which the eggs had hatched and had advanced to the L3 stage.

Data set [2] has as its system Haemonchus contortus. Description: Test B: Haemonchus contortus burdens in infected mice after oral gavage. Format: in vivo. The following applies: oral gavage 10.0 mg/kg body weight on day 0, Haemonchus contortus burdens on day 5 relative to vehicle-dosed controls. The procedure:
For evaluating control of the barber pole worm (Haemonchus contortus), mice were each infected orally with 600 L3 Haemonchus contortus larvae on Day −3. On day 0, the infected mice were gavaged with a test compound (n=1) in a propylene glycol/glycerol formal solution at the rate of 10.0 mg/kg body weight. On day 5, the mice were euthanized and evaluated for Haemonchus contortus burdens relative to the vehicle-dosed controls. The range of means for the number of Haemonchus contortus in the various tests in which these compounds were studied was 92-184.

As to `O=S(=O)(NCc1ccnc2ccccc12)c1ccc(C#CC2CC2)s1` [Compound 15, 5-(2-cyclopropylethynyl)-N-(4-quinolinylmethyl)-2-thiophenesulfonamide], the mortality at 2 ppm in data set [1] was found to be 100%. For the same compound, the “% Efficacy” value in data set [2] was determined as 93%.

In data set [1], `O=S(=O)(NCc1ccnc2ccccc12)c1ccc(C#CC2CC2)cc1` [Compound 2, 4-(2-cyclopropylethynyl)-N-(4-quinolinylmethyl)benzenesulfonamide] displayed a mortality at 2 ppm of 100%. The “% Efficacy” value in data set [2] came out at 60%.

In the case of `O=S(=O)(NCc1ccnc2ccccc12)c1ccc(C#Cc2ccccn2)cc1` [Compound 4, 4-[2-(2-pyridinyl)ethynyl]-N-(4-quinolinylmethyl)benzenesulfonamide], the mortality at 2 ppm in data set [1] was found to be 100%. Moreover, in data set [2], the “% Efficacy” value worked out at 89%.

`O=S(=O)(NCc1ccnc2ncccc12)c1ccc(C#CC2CC2)cc1` [Compound 48, 4-(2-cyclopropylethynyl)-N-(1,8-naphthyridin-4-ylmethyl)-benzenesulfonamide] displayed a melting point of 193 to 195 °C.
